Literature values as cited in patent publication EP2545940A9, “Parenteral compositions” (hameln rds gmbh, priority 2011, dated 2013).
Read-outs that look alike come from different tables or passages of the source.

Details: 25°C

Paracalcin (cosolvent: Ethanol 0.00, Propylene glycol 0.302, Water 0.698): 0.58 µg/mL
Paracalcin (cosolvent: Ethanol 0.00, Propylene glycol 0.506, Water 0.494): 14.21 µg/mL
Paracalcin (cosolvent: Ethanol 0.100, Propylene glycol 0.257, Water 0.643): 2.88 µg/mL
Paracalcin (cosolvent: Ethanol 0.199, Propylene glycol 0.207, Water 0.594): 15.94 µg/mL
Paracalcin (cosolvent: Ethanol 0.201, Propylene glycol 0.308, Water 0.491): 72.90 µg/mL
Paracalcin (cosolvent: Ethanol 0.299, Propylene glycol 0.00, Water 0.701): 6.82 µg/mL
Paracalcin (cosolvent: Ethanol 0.347, Propylene glycol 0.102, Water 0.551): 119.37 µg/mL
Paracalcin (cosolvent: Ethanol 0.498, Propylene glycol 0.00, Water 0.502): 601.63 µg/mL
Compound: C[C@H](/C=C/[C@H](C)C(C)(C)O)[C@H]1CC[C@H]2/C(=C/C=C3C[C@@H](O)C[C@H](O)C3)CCC[C@]12C [Paracalcin, (1 R, 3R, 7E, 17β) -17 - [(1 R, 2E, 4S)-5-Hydroxy-1 ,4,5-trimethylhex-2-en-1-yl] -9,10-secoestra-5,7-Dien-1 ,3-diol]
